Where a name gives a salt, the structure may show the parent alone.
Legend:
delta opioid receptor = target: T1, delta opioid receptor (Mus musculus, UniProt P32300); assay: Radioligand binding, delta opioid receptor ([3H]-DADLE, mouse brain membranes); settings: [3H]-DADLE binding, 1.3 nM, with 40 nM unlabelled DAMGO
T1 construct: Mouse brain membranes were prepared as described by; from tissue; host or cells: mouse brain membranes
Description: (§1) Mouse brain membranes were prepared as described by Kosteriitz (Br. J. Pharmacol., 1981, 73, 939.). […] The binding of the mu ligand [^3 H]-DAMGO (Eur. J. Pharmacol., 1989, 166, 213) and of the kappa ligand [^3 H]-U69593 (Excerpta Medica, 1990, 211) were carried out at 0.5 nM. The non-specific binding was determined in presence of naloxone (10 μM) for all tritiated ligands. […] The IC50 obtained were used to calculate the inhibitory constants (Ki) accordingly to the Cheng and Prusoff relation (Biochem. Pharmacol., 1973, 22, 3099).

[1] = target: delta opioid receptor (mouse vas deferens); assay: Mouse vas deferens (MVD) bioassay, delta agonist/antagonist activity
Description: The delta agonist/antagonist activity of the compounds of the present invention is determined in the mouse vas deferens (MVD) bioassay as described below.
Vasa deferentia were obtained from CD-1 mice and were suspended in a Mg^2+ -free Krebs buffer at 37° C. The tissues were electrically stimulated with pulse trains having the following parameters: train duration 50 ms, stimulus duration 2 ms, frequency of stimuli 50 Hz, maximal voltage 60-70 V, train frequency 0.1 Hz. Concentration response curves for each compounds were constructed cumulatively. Linear regression analysis and IC50 concentrations were evaluated according to Tallarida and Murray (Manual of Pharmacological Calculations, Springer Verlag N.Y., 1981).

mu opioid receptor = target: T2, mu opioid receptor (Mus musculus, UniProt P42866); assay: Radioligand binding, mu opioid receptor ([3H]-DAMGO, mouse brain membranes); settings: selectivity ratio, mu vs delta
T2 construct: Mouse brain membranes were prepared as described by; from tissue; host or cells: mouse brain membranes
Description: as §1

kappa opioid receptor = target: T3, kappa opioid receptor (Mus musculus, UniProt P33534); assay: Radioligand binding, kappa opioid receptor ([3H]-U69593, mouse brain membranes); settings: selectivity ratio, kappa vs delta
T3 construct: Mouse brain membranes were prepared as described by; from tissue; host or cells: mouse brain membranes
Description: as §1

T2 sequence (P42866 whole entry): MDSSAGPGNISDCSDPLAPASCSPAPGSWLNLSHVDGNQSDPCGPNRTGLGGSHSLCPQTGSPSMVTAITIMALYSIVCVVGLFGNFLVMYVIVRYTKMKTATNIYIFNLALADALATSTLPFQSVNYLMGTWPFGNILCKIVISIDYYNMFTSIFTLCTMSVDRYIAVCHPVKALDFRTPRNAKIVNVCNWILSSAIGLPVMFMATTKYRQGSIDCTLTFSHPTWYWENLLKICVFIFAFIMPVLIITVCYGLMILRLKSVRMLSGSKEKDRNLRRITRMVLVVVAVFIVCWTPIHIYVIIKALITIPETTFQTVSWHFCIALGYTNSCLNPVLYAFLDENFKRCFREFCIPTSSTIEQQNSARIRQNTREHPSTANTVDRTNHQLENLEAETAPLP
T3 sequence (P33534 whole entry): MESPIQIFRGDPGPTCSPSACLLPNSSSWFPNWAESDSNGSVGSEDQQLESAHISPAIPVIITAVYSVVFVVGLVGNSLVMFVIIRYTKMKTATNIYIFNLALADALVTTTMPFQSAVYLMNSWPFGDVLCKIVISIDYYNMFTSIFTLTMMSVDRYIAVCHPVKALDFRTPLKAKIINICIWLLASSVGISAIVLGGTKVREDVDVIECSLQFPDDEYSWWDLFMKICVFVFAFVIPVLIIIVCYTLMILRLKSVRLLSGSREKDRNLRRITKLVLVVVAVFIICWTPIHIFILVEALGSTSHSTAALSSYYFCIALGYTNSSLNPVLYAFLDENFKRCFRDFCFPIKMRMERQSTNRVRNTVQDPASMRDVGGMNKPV
T1 sequence (P32300 whole entry): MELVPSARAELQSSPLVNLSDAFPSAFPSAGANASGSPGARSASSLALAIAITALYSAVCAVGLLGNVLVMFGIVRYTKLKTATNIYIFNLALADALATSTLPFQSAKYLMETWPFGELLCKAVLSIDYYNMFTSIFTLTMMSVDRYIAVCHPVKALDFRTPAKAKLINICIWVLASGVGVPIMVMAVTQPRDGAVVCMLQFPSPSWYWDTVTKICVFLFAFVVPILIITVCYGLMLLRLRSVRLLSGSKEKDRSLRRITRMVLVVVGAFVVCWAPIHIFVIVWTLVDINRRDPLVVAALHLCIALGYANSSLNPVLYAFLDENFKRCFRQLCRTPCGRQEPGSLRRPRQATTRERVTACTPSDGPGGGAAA

CCN(CC)C(=O)c1[nH]c2c(c1C)C[C@H]1[C@H]3Cc4ccc(OC)c5c4[C@@]1(CCN3C)[C@H]2O5 [Example 7, [8R-(4bS*,8α,8aβ,12bβ)]-11-Diethylaminocarbonyl-7,10-dimethyl-1-methoxy-5,6,7,8,12,12b-hexahyro-(9H)-4,8-methanobenzofuro[3,2-e]pyrrolo[2,3-g]isoquinoline hydrochloride]
Ki (delta opioid receptor): 1.59 nM
IC50 ([1]; electrically stimulated mouse vas deferens, 37° C.): 25 nM
shift of the dose-response curve by NTI (selective antagonism) ([1]; in presence of 30 nM of NTI (naltrindole), MVD): 10 fold
Ki mu/Ki delta (mu opioid receptor): 218
Ki kappa/Ki delta (kappa opioid receptor): 2259
